Test results reported in patent US20100069388A1, “N-HYDROXYACRYLAMIDE COMPOUNDS” (ASTELLAS PHARMA INC., priority 2006, published 2010).
Counter-ions that a name gives are not always drawn.

Legend:
[1] = system: splenic cells of Lewis rats; assay: Test 2: Determination of T-cell growth inhibitor activity (T lymphocyte blastogenesis, Concanavalin A, AlamarBlue); type: cell-based; conditions: Lewis rat splenic cells, Concanavalin A 1 μg/mL, 72 hours, read-out: Test 2: T-cell growth inhibitory activity IC50
Protocol: The T lymphocyte blastogenesis test was performed in microtiter plates with each well containing 1.5×10^5 splenic cells of Lewis rats in 0.1 mL RPMI-1640 medium supplemented with 10% fetal bovine serum (FBS), […] 2-mercaptoethanol, penicilln (100 units/mL) and streptomycin (100 μg/mL), to which Concanavalin A (1 μg/mL) was added. The cells were incubated at 37° C. in a humidified atmosphere of 5% CO2 for 72 hours. After the culture period, suppressive activities of the test compounds in T lymphocyte blastogenesis were quantified by AlamarBlue (trademark) Assay. The test samples were dissolved in DMSO and further diluted with RPMI-1640 medium and added to the culture. The activities of the test compounds were expressed as IC50.

[2] = system: human histone deacetylase (partially purified from Jurkat cells); assay: Test 1: Determination of histone deacetylase inhibitor activity ([3H] acetyl histone deacetylation); type: biochemical; conditions: partially purified human HDAC from Jurkat cells, [3H] acetyl-labeled histones, 25° C., 30 minutes; read-out: Test 1: HDAC inhibitory activity IC50
Protocol: The partial purification of human histone deacetylase, the preparation of [^3H] acetyl histones, and the assay for histone deacetylase activity were performed basically according to the method as proposed by Yoshida et al. as follows.
The human histone deacetylase was partially purified from human T cell leukemia Jurkat cells. Jurkat cells (5×10^8 cells) were suspended in 40 mL of the HDA buffer consisting of 15 mM potassium phosphate, pH 7.5, 5% glycerol and 0.2 mM EDTA. After homogenization, nuclei were collected by centrifugation (35,000×g, 10 min) and homogenized in 20 mL of the same buffer supplemented with 1 M (NH4)2SO4. The viscous homogenate was sonicated and clarified by centrifugation (35,000×g, 10 min), and the deacetylase was precipitated by raising the concentration of (NH4)2SO4 to 3.5 M. The precipitated protein was dissolved in 10 mL of the HDA buffer and dialyzed against 4 liters of the same buffer. The dialyzate was then loaded onto a DEAE-cellulose (Whatman DE52) column (25×85 mm) equilibrated with the same buffer and eluted with 300 mL of a linear gradient (0-0.6 M) of NaCl. A single peak of histone deacetylase activity appeared between 0.3 and 0.4 M NaCl.
To obtain [^3H] acetyl-labeled histone as the substrate for the histone deacetylase assay, 1×10^8 cells of Jurkat in 20 mL of RPMI-1640 medium (supplemented with 10% FBS, penicillin (50 units/mL) and streptomycin (50 μg/mL)) were incubated with 300 MBq [^3H] sodium acetate in the presence of 5 mM sodium butyrate for 30 minutes in 5% CO2-95% air atmosphere at 37° C. in a 75 cm^2 flask, harvested into a centrifuge tube (50 mL), collected by centrifugation at 1000 rpm for 10 minutes, and washed once with phosphate-buffered saline. The washed cells were suspended in 15 mL of ice-cold lysis buffer (10 mM Tris-HCl, 50 mM sodium bisulfite, 1% Triton X-100, 10 mM MgCl2, 8.6% sucrose, pH 6.5). After Dounce homogenization (30 stroke), the nuclei were collected by centrifugation at 1000 rpm for 10 minutes, washed 3 times with 15 mL of the lysis buffer, and once with 15 mL of ice-cooled washing buffer (10 mM Tris-HCl, 13 mM EDTA, pH 7.4) successively. The pellet was suspended in 6 mL of ice-cooled water using a mixer, and 68 μl of H2SO4 was added to the suspension to give a concentration of 0.4 N. After incubation at 4° C. for 1 hour, the suspension was centrifuged for 5 minutes at 15,000 rpm, and the supernatant was taken and mixed with 60 mL of acetone. After overnight incubation at −20° C., the coagulated material was collected by microcentrifugation, air-dried, and stored at −80° C.
For the standard assay, 10 μl of [^3H] acetyl-labeled histones were added to 90 μl of the enzyme fraction, and the mixture was incubated at 25° C. for 30 minutes. The reaction was stopped by addition of 10 μl of HCl aq. The released [^3H] acetic acid was extracted with 1 mL of ethyl acetate, and 0.9 mL of the solvent layer was taken into 10 mL of toluene scintillation solution for determination of radioactivity.

Structure (SMILES) | IC50 [1] [nM] | IC50 [2] [nM]
O=C(/C=C/c1cnc(NCCNC(=O)c2ccc(Cl)cc2)c(Cl)c1)NO [Example 3, 4-chloro-N-[2-({3-chloro-5-[(1E)-3-(hydroxyamino)-3-oxo-1-propen-1-yl]-2-pyridinyl}amino)ethyl]benzamide hydrochloride] | 18 | 1.7
O=C(/C=C/c1cnc(NCCNC(=O)C2CCCCC2)c(Cl)c1)NO [Example 10] | 17 | 6.8
C[C@H](CN(C)Cc1ccc(Cl)cc1)Nc1ncc(/C=C/C(=O)NO)cc1Cl [Example 11] | 6.2 | 8.8
O=C(/C=C/c1cnc(NCCOc2ccccc2)cn1)NO [Example 23] | 21 | 6
C[C@H](CN(C)Cc1ccccc1)Nc1cnc(/C=C/C(=O)NO)cn1 [Example 36] | 1.5 | 4
C[C@H](CN(C)CC1CCCCC1)Nc1cnc(/C=C/C(=O)NO)cn1 [Example 39] | 0.23 | 0.78
C[C@@H](Nc1ncc(/C=C/C(=O)NO)cc1Cl)C(=O)NCC1CCCCC1 [Example 49, N^2-{3-chloro-5-[(1E)-3-(hydroxyamino)-3-oxoprop-1-en-1-yl]pyridin-2-yl}-N^1-(cyclohexylmethyl)-D-alaninamide] | 17 | 25
CC(C)[C@@H](Nc1cnc(/C=C/C(=O)NO)cn1)C(=O)NCC1CCCCC1 [Example 57] | 4.7 | 9.1
C[C@H](CNC(=O)C1CCCCC1)Nc1cnc(/C=C/C(=O)NO)cn1 [Example 66] | 21 | 3.9
C[C@@H](Nc1cnc(/C=C/C(=O)NO)cn1)C(=O)NC1Cc2ccccc2C1 [Example 86] | 28 | 8.2
C[C@@H](Nc1cnc(/C=C/C(=O)NO)cn1)C(=O)NC1CCCCCC1 [Example 87] | 3.2 | 2.3
C[C@@H](Nc1cnc(/C=C/C(=O)NO)cn1)C(=O)N[C@]12CC3C[C@H](C[C@H](C3)C1)C2 [Example 88] | 1.5 | 2.7
CC(C)[C@@H](Nc1cnc(/C=C/C(=O)NO)cn1)C(=O)Nc1ccccc1 [Example 91] | 2.6 | 1.5
